According to PubChem BioAssay AID330 (DTP/NCI, 2004):
Values joined by “and” are separate entries in the source; they are usually repeats but may differ in a detail not shown here. Equal values may be shown once. Inconclusive results and toxic doses are left out. The calls were made as follows: active = survival T/C of 150% or more; inactive = T/C below 125% in these data.

System: P388 leukemia ip, CD2F1 mice, survival T/C
Assay: NCI In Vivo Anticancer Drug Screen. Data for tumor model P388 Leukemia (intraperitoneal) in CD2F1 (CDF1) mice
Details: endpoint: median survival time, higher = longer survival
How it was run: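 Mice carrying the transplanted tumor received test compound or vehicle. Survival was recorded in each group, and the value is the treated-group measurement divided by that of the vehicle-treated control group.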

[1] = dose: 50.0 mg/kg/injection, schedule: Q01DX009 (ip), vehicle: saline
[2] = dose: 100.0 mg/kg/injection, schedule: Q01DX009 (ip), vehicle: saline
[3] = dose: 200.0 mg/kg/injection, schedule: Q01DX009 (ip), vehicle: saline
[4] = dose: 50.0 mg/kg/injection, schedule: Q01DX009 (ip), vehicle: saline with Tween-80
[5] = dose: 100.0 mg/kg/injection, schedule: Q01DX009 (ip), vehicle: saline with Tween-80
[6] = dose: 200.0 mg/kg/injection, schedule: Q01DX009 (ip), vehicle: saline with Tween-80
[7] = dose: 60.0 mg/kg/injection, schedule: Q01DX005 (ip), vehicle: saline with Tween-80
[8] = dose: 120.0 mg/kg/injection, schedule: Q01DX005 (ip), vehicle: saline with Tween-80
[9] = dose: 240.0 mg/kg/injection, schedule: Q01DX005 (ip), vehicle: saline with Tween-80
[10] = dose: 12.5 mg/kg/injection, schedule: Q01DX009 (ip), vehicle: saline
[11] = dose: 60.0 mg/kg/injection, schedule: Q01DX005 (ip), vehicle: Klucel (hydroxypropylcellulose) (HPC)
[12] = dose: 120.0 mg/kg/injection, schedule: Q01DX005 (ip), vehicle: Klucel (hydroxypropylcellulose) (HPC)
[13] = dose: 240.0 mg/kg/injection, schedule: Q01DX005 (ip), vehicle: Klucel (hydroxypropylcellulose) (HPC)

Measured: T/C

N=c1ccn2c(n1)OC1C(O)C(CO)OC12 (stereo unspecified)
inactive: dose: 600.0 mg/kg/injection, schedule: Q01DX009 (ip), vehicle: saline 91 % of control
active: [1] 200 % of control | dose: 75.0 mg/kg/injection, schedule: Q01DX009 (ip), vehicle: saline 156 % of control | dose: 100.0 mg/kg/injection, schedule: Q01DX009 (ip), vehicle: saline sonified 181 % of control | [2] 222 % of control | dose: 150.0 mg/kg/injection, schedule: Q01DX009 (ip), vehicle: saline 175 % of control | dose: 160.0 mg/kg/injection, schedule: Q01DX005 (ip), vehicle: saline 150 % of control | dose: 160.0 mg/kg/injection, schedule: Q01DX005 (iv), vehicle: saline 161 % of control | dose: 200.0 mg/kg/injection, schedule: Q01DX009 (ip), vehicle: saline sonified 168 % of control | [3] 272 % of control | dose: 300.0 mg/kg/injection, schedule: Q01DX009 (ip), vehicle: saline 200 % of control | dose: 320.0 mg/kg/injection, schedule: Q01DX005 (ip), vehicle: saline 170 % of control | dose: 320.0 mg/kg/injection, schedule: Q01DX005 (iv), vehicle: saline 184 % of control | dose: 400.0 mg/kg/injection, schedule: Q01DX009 (ip), vehicle: saline sonified 181 % of control | dose: 400.0 mg/kg/injection, schedule: Q01DX009 (ip), vehicle: saline 272 % of control | dose: 640.0 mg/kg/injection, schedule: Q01DX005 (ip), vehicle: saline 203 % of control | dose: 640.0 mg/kg/injection, schedule: Q01DX005 (iv), vehicle: saline 194 % of control | dose: 800.0 mg/kg/injection, schedule: Q01DX009 (ip), vehicle: saline sonified 181 % of control

O=c1ccc2[n+]([O-])c3ccc(O)cc3oc-2c1
inactive: dose: 50.0 mg/kg/injection, schedule: Q01DX005 (ip), vehicle: saline with Tween-80 95 % of control | dose: 100.0 mg/kg/injection, schedule: Q01DX005 (ip), vehicle: saline with Tween-80 100 % of control

CC1(C)C=Cc2cc(O)ccc2O1
inactive: dose: 25.0 mg/kg/injection, schedule: Q01DX009 (ip), vehicle: saline with Tween-80 99 % of control | [4] 90 % of control | [5] 88 % of control | [6] 86 % of control

CN1C(=O)N(C)C2(C(=O)N(C)C(=S)N2C)N(C)C1=O
inactive: [7] 95 % of control | [8] 103 % of control | [9] 102 % of control

CCCCCCCCCCCCNC(=S)C(=S)NCCCCCCCCCCCC
inactive: dose: 25.0 mg/kg/injection, schedule: Q01DX009 (ip), vehicle: Klucel (hydroxypropylcellulose) (HPC) 98 % of control | dose: 50.0 mg/kg/injection, schedule: Q01DX009 (ip), vehicle: Klucel (hydroxypropylcellulose) (HPC) 95 % of control | dose: 100.0 mg/kg/injection, schedule: Q01DX009 (ip), vehicle: Klucel (hydroxypropylcellulose) (HPC) 94 % of control

CNC1=C(C(=O)c2ccccc2)CCC1
inactive: dose: 6.25 mg/kg/injection, schedule: Q01DX009 (ip), vehicle: saline 104 % of control | [10] 104 % of control | dose: 25.0 mg/kg/injection, schedule: Q01DX009 (ip), vehicle: saline 101 % of control | [1] 101 % of control | [2] 104 % of control and 87 % of control and 95 % of control | [3] 124 % of control and 90 % of control and 95 % of control

O=C1CNC(=O)N1c1ccccc1
inactive: [5] 103 % of control | [6] 98 % of control | dose: 400.0 mg/kg/injection, schedule: Q01DX009 (ip), vehicle: saline with Tween-80 103 % of control

CC(=O)CC(c1ccccc1)C(C#N)c1ccccc1 (stereo unspecified)
inactive: dose: 12.5 mg/kg/injection, schedule: Q04DX003 (ip), vehicle: Klucel (hydroxypropylcellulose) (HPC) 118 % of control | dose: 25.0 mg/kg/injection, schedule: Q04DX003 (ip), vehicle: Klucel (hydroxypropylcellulose) (HPC) 106 % of control | dose: 50.0 mg/kg/injection, schedule: Q04DX003 (ip), vehicle: Klucel (hydroxypropylcellulose) (HPC) 106 % of control

CC(=O)OC1CCC2(C)CCC3C(OC(=O)C3(C)[Se]c3ccccc3)C2C1C (stereo unspecified)
inactive: dose: 100.0 mg/kg/injection, schedule: Q04DX002 (ip), vehicle: saline with Tween-80 91 % of control

COC(=O)c1nc(N)nc(C(=O)OC)c1C(=O)c1ccco1
inactive: [11] 101 % of control | [12] 103 % of control

COC(=O)[C@@H]1CCCN1C(=O)C(=O)N1CCC[C@H]1C(=O)OC
inactive: dose: 100.0 mg/kg/injection, schedule: Q01DX001 (ip), vehicle: saline with Tween-80 108 % of control | dose: 200.0 mg/kg/injection, schedule: Q01DX001 (ip), vehicle: saline with Tween-80 103 % of control | dose: 400.0 mg/kg/injection, schedule: Q01DX001 (ip), vehicle: saline with Tween-80 103 % of control

CC(=O)C1=CN(Cc2ccccc2)C=C(C)C1
inactive: [1] 99 % of control | [2] 96 % of control | [3] 96 % of control

CC(C)(C)C(=O)Oc1c2ccccc2cc2ccccc12
inactive: dose: 30.0 mg/kg/injection, schedule: Q01DX005 (ip), vehicle: saline with Tween-80 88 % of control | [7] 88 % of control and 89 % of control | [8] 86 % of control

CC1(C)OC(=O)N=C1c1ccc(F)cc1
inactive: [11] 102 % of control | [12] 107 % of control | [13] 111 % of control

CCN(C)N=Nc1ccc(C(N)=O)cc1
inactive: dose: 25.0 mg/kg/injection, schedule: Q01DX005 (ip), vehicle: Klucel (hydroxypropylcellulose) (HPC) 101 % of control and 105 % of control | dose: 50.0 mg/kg/injection, schedule: Q01DX005 (ip), vehicle: Klucel (hydroxypropylcellulose) (HPC) 95 % of control | dose: 200.0 mg/kg/injection, schedule: Q01DX005 (ip), vehicle: Klucel (hydroxypropylcellulose) (HPC) 89 % of control

CC(C)(Br)C(=O)/C=C/c1ccc(Cl)cc1
inactive: [7] 108 % of control | [8] 104 % of control | [9] 114 % of control

CC(C)CC(=O)OCC1=CCN2CC[C@@H](O)[C@@H]12
inactive: dose: 15.0 mg/kg/injection, schedule: Q01DX009 (ip), vehicle: saline + alcohol 105 % of control | dose: 30.0 mg/kg/injection, schedule: Q01DX009 (ip), vehicle: saline + alcohol 109 % of control | dose: 60.0 mg/kg/injection, schedule: Q01DX009 (ip), vehicle: saline + alcohol 105 % of control | dose: 120.0 mg/kg/injection, schedule: Q01DX009 (ip), vehicle: saline + alcohol 108 % of control | dose: 240.0 mg/kg/injection, schedule: Q01DX009 (ip), vehicle: saline + alcohol 108 % of control | dose: 480.0 mg/kg/injection, schedule: Q01DX009 (ip), vehicle: saline + alcohol 114 % of control

CN(C)CCn1ncc(Sc2cc([N+](=O)[O-])ccc2N)c(Cl)c1=O
inactive: [7] 103 % of control | [8] 96 % of control | [9] 97 % of control

O=C(COc1ccc(Cl)cc1Cl)Nc1ccc(S(=O)(=O)O)cc1
inactive: [11] 104 % of control | [12] 104 % of control | [13] 98 % of control

CCOc1c(N=Nc2ccccc2C)c(C)nn1C(=S)S
inactive: [11] 97 % of control | [12] 95 % of control | [13] 97 % of control

COCCCNP(=S)(N1CC1)N1CC1
inactive: dose: 3.0 mg/kg/injection, schedule: Q04DX003 (ip), vehicle: saline 110 % of control | dose: 6.0 mg/kg/injection, schedule: Q04DX003 (ip), vehicle: saline 115 % of control
active: [10] 170 % of control | dose: 25.0 mg/kg/injection, schedule: Q04DX003 (ip), vehicle: saline with Tween-80 186 % of control

C=C1c2c(O)c(C)c(O)c(C(C)=O)c2OC12CC(=O)C(C(=O)O)=C2C (stereo unspecified)
inactive: dose: 12.5 mg/kg/injection, schedule: Q01DX009 (ip), vehicle: gum acacia 105 % of control and 112 % of control | dose: 25.0 mg/kg/injection, schedule: Q01DX009 (ip), vehicle: gum acacia 108 % of control and 109 % of control | dose: 50.0 mg/kg/injection, schedule: Q01DX009 (ip), vehicle: gum acacia 108 % of control | dose: 100.0 mg/kg/injection, schedule: Q01DX009 (ip), vehicle: gum acacia 108 % of control and 110 % of control | dose: 200.0 mg/kg/injection, schedule: Q01DX009 (ip), vehicle: gum acacia 108 % of control and 110 % of control

Nc1cc(=O)[nH][nH]1
inactive: dose: 100.0 mg/kg/injection, schedule: Q04DX003 (ip), vehicle: saline with Tween-80 100 % of control | dose: 200.0 mg/kg/injection, schedule: Q04DX003 (ip), vehicle: saline with Tween-80 100 % of control | dose: 400.0 mg/kg/injection, schedule: Q04DX003 (ip), vehicle: saline with Tween-80 109 % of control

CC(=O)OC1CC(C(=O)c2ccccc2)N2N=CN(c3ccccc3)C12 (stereo unspecified)
inactive: [11] 103 % of control | [12] 102 % of control | [13] 104 % of control

O=C1Nc2ccccc2S/C1=C\c1cccc(C(F)(F)F)c1
inactive: [4] 94 % of control | [5] 100 % of control | [6] 105 % of control
